Source: paper PMC10258794, “To Fold or Not to Fold: Diastereomeric Optimization of an α-Helical Antimicrobial Peptide” (Journal of Medicinal Chemistry, 2023)
In brackets after ≈: the same amount, converted by molar mass. Where two headings read alike, the source gives them in different places.

Experiments:
Enterobacter cloacae = test: microbe, parasite or virus in culture
Procedure: (§1) Antimicrobial activity was determined for all peptides on E. coli W3110, P. aeruginosa PAO1, A. baumannii ATCC19606, K. pneumoniae NCTC418, and methicillin-resistant S. aureus COL and for selected peptides on P. aeruginosa PA14 and the polymyxin B-resistant derivatives PA14 4.13, PA14 4.18, and PA14 2P4 as well as the clinical isolates ZEM-1A and ZEM9A, K. pneumoniae OXA-48, Enterobacter cloacae, Stenotrophomonas maltophilia, B. cenocepacia, and Staphylococus epidermis. To determine the MIC, the broth microdilution method was used.[75] A single bacterial colony was grown in LB medium overnight at 37 °C and 180 rpm shaking. The compounds were prepared as stock solutions of 2 mg/mL in sterilized milliQ deionized water, added to the first well of 96-well sterile, polypropylene round-bottom microtiter plates (TPP, untreated, Corning Incorporated, Kennebunk, USA), and diluted serially by 1/2. […] The bacterial inoculum was prepared by measuring the absorbance of the overnight culture, which was diluted to concentration of the bacteria was quantified by measuring absorbance at 600 nm and diluted to an OD600 of 0.022 in MH medium pH 7.4 (Sigma-Aldrich, Buchs, Switzerland). The sample solutions (150 μL) were mixed with 4 μL of diluted bacterial suspension with a final inoculation of about 5 × 10^5 CFU. For each test, two columns of the plate were kept for sterility control (MH medium only) and growth control (MH medium with bacterial inoculum, no compound). […] The plates were incubated at 37 °C for 16–20 h under static conditions. 15 μL of 3-(4,5-dimethylthiazol-2-yl)-2,5-diphenyltetrazolium bromide (MTT)[76] (1 mg/mL in sterilized milliQ deionized water) was added to each well, and the plates were incubated at room temperature until MTT staining was completed. The MIC was defined as the lowest concentration of the dendrimer that inhibits the visible growth of the tested bacteria (yellow) with the unaided eye.

P. aeruginosa ZEM-1A = test: microbe, parasite or virus in culture; settings: ZEM-1A, pH 7.4
Procedure: as §1

human red blood cells = test: Hemolysis assay (MHC)
Procedure: To determine the MHC stock solutions, 8 mg/mL peptide in PBS (pH 7.4) was prepared, and 50 μL was diluted serially by l/2 in 50 μL of PBS (pH 7.4) in a 96-well plate (Costar or Nunc, polystyrene, untreated). […] Plasma was discarded, and the pellet was re-suspended in a 15 mL Falcon tube in 5 mL of PBS. The washing was repeated three times, and the remaining pellet was re-suspended in 10 mL of PBS. The hRBC suspension (50 μL) was added to each well, and the plate was incubated at room temperature for 4 h. MHC end points were determined by visual determination of the wells after the incubation period. Controls on each plate included a blank medium control (50 μL PBS + 50 μL of hRBCs suspension) and a hemolytic activity control (mQ-deionized water 50 μL + 50 μL hRBC suspension).

E. coli W3110 = test system: E. coli W3110
Procedure: as §1

P. aeruginosa PAO1 = test system: P. aeruginosa PAO1
Procedure: as §1

A. baumannii ATCC19606 = test system: A. baumannii ATCC19606
Procedure: as §1

K. pneumoniae NCTC418 = test system: K. pneumoniae NCTC418
Procedure: as §1

S. aureus COL MRSA = settings: for MIC S. aureus COL MRSA: MH broth pH 7.4, 16–20 h, 37 °C; for MIC S. aureus COL: supplementary CSV, ranges of Table 1 given as one number
Procedure: as §1

[1] = EYPC vesicle leakage assay; format: biochemical; settings: 10 μg/mL of compound; 10 mM TRIS, 107 mM NaCl, pH 7.4
Procedure: 5(6)-carboxyfluorescein (CF) was purchased from Sigma. EYPC, EYPG, and a Mini-Extruder were purchased from Avanti Polar Lipids. Egg PC or Egg PG thin lipid layers were prepared by evaporating a solution of 100 mg of EYPC or EYPG in 4 mL of MeOH/CHCl3 (1:1) on a rotary evaporator at room temperature and then dried in vacuo overnight. […] Extravesicular components were removed by gel filtration (Sephadex G-50) with 10 mM TRIS, 107 mM NaCl, pH 7.4 buffer. Final conditions: ∼2.5 mM PC or PG; inside: 50 mM CF, 10 mM TRIS, 10 mM NaCl, pH 7.4 buffer; outside: 10 mM TRIS, 107 mM NaCl, pH 7.4. […] The CF efflux was monitored at λem 517 nm (λex 492 nm) as a function of time after addition of the desired volume of peptide from 2 mg/mL stock in mQ water at t = 45 s, 10 and 50 μg/mL were monitored for both EYPC and EYPG. […] Fluorescence intensities were then normalized to the maximal emission intensity using I(t) = (It – I0)/(I∞ – I0) where I0 = It at peptide addition, I∞ = It at saturation of lysis.

[2] = MH broth pH 7.4, 16–20 h, 37 °C
[3] = supplementary CSV, ranges of Table 1 given as one number

Compound	MIC E. cloacae (Enterobacter cloacae) [µg/mL]	MIC ZEM-1A (P. aeruginosa ZEM-1A) [µg/mL]	MHC (human red blood cells; human red blood cells in PBS pH 7.4, 4 h, room temperature) [µg/mL]	MHC (human red blood cells; supplementary CSV, human red blood cells) [µg/mL]	MIC E. coli W3110 (E. coli W3110; [2]) [µg/mL]	MIC P. aeruginosa PAO1 (P. aeruginosa PAO1; [2]) [µg/mL]	MIC A. baumannii ATCC19606 (A. baumannii ATCC19606; [2]) [µg/mL]	MIC K. pneumoniae NCTC418 (K. pneumoniae NCTC418; [2]) [µg/mL]	MIC S. aureus COL MRSA (S. aureus COL MRSA) [µg/mL]	MIC P. aeruginosa PAO1 (P. aeruginosa PAO1; [3]) [µg/mL]	MIC A. baumannii ATCC19606 (A. baumannii ATCC19606; [3]) [µg/mL]	MIC S. aureus COL (S. aureus COL MRSA) [µg/mL]	EYPC vesicle leakage (%) [1] [%]	MIC E. coli W3110 (E. coli W3110; [3]) [µg/mL]	MIC K. pneumoniae NCTC418 (K. pneumoniae NCTC418; [3]) [µg/mL]
CC(C)C[C@H](NC(=O)[C@H](CC(C)C)NC(=O)[C@H](CCCCN)NC(=O)[C@H](CC(C)C)NC(=O)[C@H](CC(C)C)NC(=O)[C@@H](CCCCN)NC(=O)[C@H](N)CCCCN)C(=O)N[C@@H](CCCCN)C(=O)N[C@@H](CC(C)C)C(=O)N[C@@H](CC(C)C)C(=O)N[C@H](CC(C)C)C(N)=O [HP7]	2 (≈ 1.51 µM)	1 (≈ 0.757 µM)													
H-RRLLRLLRLLL-NH2 [HP32]			15.6	16											
CC(C)CC(NC(=O)C(CC(C)C)NC(=O)C(CC(C)C)NC(=O)C(CCCCN)NC(=O)C(CC(C)C)NC(=O)C(CC(C)C)NC(=O)C(CCCCN)NC(=O)C(CC(C)C)NC(=O)C(CC(C)C)NC(=O)C(CCCCN)NC(=O)C(N)CCCCN)C(N)=O (racemic) [sr-ln65]					4 (≈ 3.03 µM)	4 (≈ 3.03 µM)	4 (≈ 3.03 µM)	16 to 32	8 (≈ 6.05 µM)						
CC(C)C[C@H](NC(=O)[C@H](CC(C)C)NC(=O)[C@@H](CCCCN)NC(=O)[C@H](CC(C)C)NC(=O)[C@H](CC(C)C)NC(=O)[C@@H](CCCCN)NC(=O)[C@H](N)CCCCN)C(=O)N[C@@H](CCCCN)C(=O)N[C@@H](CC(C)C)C(=O)N[C@H](CC(C)C)C(=O)N[C@H](CC(C)C)C(N)=O [HP26, kkLLkLLKLll]					4 (≈ 3.03 µM)	4 (≈ 3.03 µM)	16 (≈ 12.1 µM)	>64	32 (≈ 24.2 µM)	4 (≈ 3.03 µM)	16 (≈ 12.1 µM)	32 (≈ 24.2 µM)	6		
CC(C)CC(NC(=O)C(CC(C)C)NC(=O)C(CC(C)C)NC(=O)C(CCCCN)NC(=O)C(CC(C)C)NC(=O)[C@H](CC(C)C)NC(=O)C(CCCCN)NC(=O)C(CC(C)C)NC(=O)C(CC(C)C)NC(=O)C(CCCCN)NC(=O)C(N)CCCCN)C(N)=O (mixture of isomers) [sr-ln65L^6]					4 (≈ 3.03 µM)	8 (≈ 6.05 µM)	8 (≈ 6.05 µM)	16 to 32	16 (≈ 12.1 µM)	8 (≈ 6.05 µM)	8 (≈ 6.05 µM)	16 (≈ 12.1 µM)			
CC(C)C[C@@H](NC(=O)[C@@H](CC(C)C)NC(=O)[C@@H](CC(C)C)NC(=O)[C@@H](CCCCN)NC(=O)[C@@H](CC(C)C)NC(=O)[C@@H](CC(C)C)NC(=O)[C@@H](CCCCN)NC(=O)[C@@H](CC(C)C)NC(=O)[C@@H](CC(C)C)NC(=O)[C@@H](CCCCN)NC(=O)[C@H](N)CCCCN)C(N)=O [dln65, kkllkllklll]					2 to 4	2 to 4	4 (≈ 3.03 µM)	4 (≈ 3.03 µM)	2 to 4	3 (≈ 2.27 µM)	4 (≈ 3.03 µM)	3 (≈ 2.27 µM)		3 (≈ 2.27 µM)	4 (≈ 3.03 µM)
